Assay results from patent US10913753B2, “Thienopyridine carboxamides as ubiquitin-specific protease inhibitors” (FORMA Therapeutics, Inc., priority 2016, dated 2021).

Tests used:
[1] = target: USP28 (Homo sapiens (Human), UniProt Q96RU2); experiment: Ubiquitin-Rhodamine 110 Assay for USP28 Activity; type: biochemical
Method: The assay was performed in a final volume of 20 μL in assay buffer containing 20 mM Tris-HCl (pH 8.0, (1M Tris-HCl, pH 8.0 solution; Corning 46-031-CM)), 2 mM CaCl2 (1M Calcium Chloride solution; Sigma #21114) 2 mM BME (2-Mercaptoethanol; Sigma 63689-25ML -F), 0.01% Prionex (0.22 μM filtered, Sigma #G-0411), and 0.01% Triton X-100. Stock compound solutions were stored at −20° C. as 10 mM in DMSO. Up to 1 month prior to the assay, 2 mM test compounds were pre-dispensed into assay plates (Black, low volume; Corning #3820) and frozen at −20° C. Prestamped assay plates were allowed to come to room temperature on the day of the assay. For the screen, 100 nL of 2 mM was pre-dispensed for a final screening concentration of 10 μM (DMSO(fc)=0.5%). […] Plates were incubated stacked for 90 minutes at room temperature before fluorescence was read on the Envision (Excitation at 485 nm and Emission at 535 nm; Perkin Elmer) or on the PheraSTAR (Excitation at 485 nm and Emission at 535 nm; BMG Labtech).
For follow-up studies, the assay was performed in a final volume of 15 μL in assay buffer containing 20 mM Tris-HCl (pH 8.0, (1M Tris-HCl, pH 8.0 solution; Corning 46-031-CM)), 3 mM BME (2-Mercaptoethanol; Sigma 63689-25ML-F), 0.03% BGG (0.22 μM filtered, Sigma, G7516-25G), and 0.01% Triton X-100 (Sigma, T9284-10L). Nanoliter quantities of either an 8-point or 10-point, 3-fold serial dilution in DMSO was pre-dispensed into assay plates (Perkin Elmer, ProxiPlate-384 F Plus) for a final test concentration of either 25 μM to 11 nM or 25 μM to 1.3 nM, respectively. Enzyme USP28, construct USP28 (USP28-5(1-1077)-TEV-6*His; LifeSensors) concentration and incubation times were optimized for the maximal signal-to -background while maintaining initial velocity conditions at a fixed substrate concentration. The final concentration of the enzyme in the assay was 75 pM. […] 5 μL of 2× enzyme was added to assay plates (pre-stamped with compound) preincubated with USP28 for 30 minutes and then 5 μL of 2× Ub-Rh110 was added to assay plates. Plates were incubated stacked for 20 min at room temperature before 5 μL of stop solution was added (final concentration of 10 mM citric acid (Sigma, 251275-500G)). Fluorescence was read on the Envision (Excitation at 485 nm and Emission at 535 nm; Perkin Elmer) or on the PheraSTAR (Excitation at 485 nm and Emission at 535 nm; BMG Labtech).
(§1) For both the USP28 and USP25 assay formats, data were reported as percent inhibition compared with control wells based on the following equation: % inh=1-((FLU-AveLow)/(AveHigh−AveLow)) where FLU=measured Fluorescence, AveLow=average Fluorescence of no enzyme control (n=16), and AveHigh=average Fluorescence of DMSO control (n=16). IC50 values were determined by curve fitting of the standard 4 parameter logistic fitting algorithm included in the Activity Base software package: IDBS XE Designer Model205. Data is fitted using the Levenburg Marquardt algorithm.

[2] = target: USP25 (Homo sapiens (Human), UniProt Q9UHP3); experiment: Ubiquitin-Rhodamine 110 Assay for USP25 Activity; type: biochemical
Method: The assay was performed in a final volume of 9 μL in assay buffer containing 20 mM Tris-HCl (pH 8.0, (1M Tris-HC1, pH 8.0 solution; Corning 46-031-CM)), 3 mM BME (2-Mercaptoethanol; Sigma 63689-25ML-F), 0.03% BGG (0.22 μM filtered, Sigma, G7516-25G), and 0.01% Triton X-100 (Sigma, T9284-10L). Nanoliter quantities of 10-point, 3-fold serial dilution in DMSO was pre-dispensed into 1536 assay plates (Corning, #3724BC) for a final test concentration of 25 μM to 1.3 nM, top to lowest dose, respectively. Enzyme USP25, construct USP25-His6, (Boston Biochem E-546). Concentration and incubation times were optimized for the maximal signal-to-background while maintaining initial velocity conditions at a fixed substrate concentration. The final concentration of the enzyme in the assay was 75 pM. […] 3 μL of 2× enzyme was added to assay plates (pre-stamped with compound) preincubated with […] for 30 minutes and then 3 μL of 2× Ub-Rh110 was added to assay plates. Plates were incubated for 45 minutes at room temperature before addition of 3 μL of stop solution (final concentration of 10 mM citric acid (Sigma, 251275-500G)). Fluorescence was read on the Envision (Excitation at 485 nm and Emission at 535 nm; Perkin Elmer) or on the PheraSTAR (Excitation at 485 nm and Emission at 535 nm; BMG Labtech).
as §1

Sequence of USP28 (Q96RU2 whole entry): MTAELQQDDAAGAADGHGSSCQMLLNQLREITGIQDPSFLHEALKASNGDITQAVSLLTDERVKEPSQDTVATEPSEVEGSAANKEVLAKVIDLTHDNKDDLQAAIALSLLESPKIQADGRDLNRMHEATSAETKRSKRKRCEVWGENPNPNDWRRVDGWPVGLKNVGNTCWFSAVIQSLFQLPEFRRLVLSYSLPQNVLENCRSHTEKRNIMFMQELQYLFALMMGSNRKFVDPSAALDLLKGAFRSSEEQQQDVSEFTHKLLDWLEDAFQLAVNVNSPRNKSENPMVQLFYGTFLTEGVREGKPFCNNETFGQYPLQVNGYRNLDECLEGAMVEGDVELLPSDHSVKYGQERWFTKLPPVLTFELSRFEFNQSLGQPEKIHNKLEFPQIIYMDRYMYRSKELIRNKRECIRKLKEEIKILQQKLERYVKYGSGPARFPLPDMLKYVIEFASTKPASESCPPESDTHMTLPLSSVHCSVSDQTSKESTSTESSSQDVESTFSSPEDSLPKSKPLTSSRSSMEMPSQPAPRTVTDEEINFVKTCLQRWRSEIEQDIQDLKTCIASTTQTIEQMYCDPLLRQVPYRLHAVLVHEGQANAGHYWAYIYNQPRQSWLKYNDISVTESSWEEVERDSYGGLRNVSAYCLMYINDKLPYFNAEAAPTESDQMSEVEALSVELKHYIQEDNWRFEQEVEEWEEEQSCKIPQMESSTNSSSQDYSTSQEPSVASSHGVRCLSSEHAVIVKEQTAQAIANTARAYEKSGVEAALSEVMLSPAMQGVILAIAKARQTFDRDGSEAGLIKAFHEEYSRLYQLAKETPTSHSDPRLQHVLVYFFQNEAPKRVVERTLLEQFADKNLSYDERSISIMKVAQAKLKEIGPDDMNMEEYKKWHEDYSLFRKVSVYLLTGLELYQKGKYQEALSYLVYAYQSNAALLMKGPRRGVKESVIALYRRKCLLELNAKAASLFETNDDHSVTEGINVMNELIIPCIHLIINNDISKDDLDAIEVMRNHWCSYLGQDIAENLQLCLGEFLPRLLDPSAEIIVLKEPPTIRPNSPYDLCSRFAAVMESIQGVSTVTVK
Sequence of USP25 (Q9UHP3 whole entry): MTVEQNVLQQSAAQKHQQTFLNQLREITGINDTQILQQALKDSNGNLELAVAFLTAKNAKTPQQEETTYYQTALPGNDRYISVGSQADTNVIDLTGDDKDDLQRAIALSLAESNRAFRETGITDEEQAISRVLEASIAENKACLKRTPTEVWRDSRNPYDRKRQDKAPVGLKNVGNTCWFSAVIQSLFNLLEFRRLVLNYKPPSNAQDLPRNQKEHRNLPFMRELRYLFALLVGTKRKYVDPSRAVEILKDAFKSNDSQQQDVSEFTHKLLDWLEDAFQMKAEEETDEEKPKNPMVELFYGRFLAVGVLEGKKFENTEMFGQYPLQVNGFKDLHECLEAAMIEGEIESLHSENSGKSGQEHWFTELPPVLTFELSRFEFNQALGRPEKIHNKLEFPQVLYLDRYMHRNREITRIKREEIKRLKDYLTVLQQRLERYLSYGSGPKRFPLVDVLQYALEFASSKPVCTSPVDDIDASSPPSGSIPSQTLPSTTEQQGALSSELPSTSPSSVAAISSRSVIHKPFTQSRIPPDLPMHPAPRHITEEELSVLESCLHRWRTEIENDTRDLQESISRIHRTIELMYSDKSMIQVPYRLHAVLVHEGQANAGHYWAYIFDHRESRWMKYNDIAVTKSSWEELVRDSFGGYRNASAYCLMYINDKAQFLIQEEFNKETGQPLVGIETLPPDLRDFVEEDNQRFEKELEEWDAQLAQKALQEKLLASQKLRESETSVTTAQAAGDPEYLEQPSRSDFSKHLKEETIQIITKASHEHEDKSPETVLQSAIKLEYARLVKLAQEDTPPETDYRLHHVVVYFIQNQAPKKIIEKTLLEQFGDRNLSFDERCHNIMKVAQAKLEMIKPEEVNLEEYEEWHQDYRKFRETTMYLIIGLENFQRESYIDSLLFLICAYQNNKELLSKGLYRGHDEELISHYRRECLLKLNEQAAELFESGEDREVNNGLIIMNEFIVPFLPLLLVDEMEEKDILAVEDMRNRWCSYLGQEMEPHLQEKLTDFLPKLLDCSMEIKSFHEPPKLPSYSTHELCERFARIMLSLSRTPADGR

| Compound | IC50 [1] [nM] | IC50 [2] [nM] |
| --- | --- | --- |
| Cc1cc2c(N)c(C(=O)NCCc3ccc(N4CCNCC4)c(Cl)c3)sc2nc1C [Compound I-31] | 2000 to 10000 | 2000 to 10000 |
| Nc1c(C(=O)NCCc2ccc(N3CCNCC3)cc2)sc2nc(C(F)(F)F)ccc12 [Compound I-33] | 2000 to 10000 | 2000 to 10000 |
| Cc1ccc2c(N)c(C(=O)NCCc3cc(F)c(N4CC5CCC(C4)N5)cc3F)sc2n1 [Compound I-34] | < 200 | 200 to 2000 |
| Cc1ccc2c(N)c(C(=O)NCCc3ccc(N4CC5CCC(C4)N5)cc3C#N)sc2n1 [Compound I-36] | < 200 | 200 to 2000 |
| COCc1cc(N2CCNCC2)ccc1CCNC(=O)c1sc2nc(C)ccc2c1N [Compound I-37] | < 200 | 200 to 2000 |
| Cc1ccc2c(N)c(C(=O)NCCc3ccc(-n4ncc5c4CNC5)cc3)sc2n1 [Compound I-38] | 200 to 2000 | 2000 to 10000 |
| Nc1c(C(=O)NCCc2ccc(N3CCNCC3)c(Cl)c2)sc2ncc(Cl)cc12 [Compound I-40] | 200 to 2000 | 2000 to 10000 |
| Cc1ccc2c(N)c(C(=O)NCCc3ccc(-n4ncc5c4CNC5)cc3F)sc2n1 [Compound I-41] | < 200 | 200 to 2000 |
| Nc1c(C(=O)NCCc2ccc(N3CCNCC3)cc2)sc2nc(CO)ccc12 [Compound I-43] | 200 to 2000 | 2000 to 10000 |
| CCc1cc(CCNC(=O)c2sc3nc(C)ccc3c2N)ccc1N1CC2CCC(C1)N2 [Compound I-44] | < 200 | < 200 |
| CCc1ccc2c(N)c(C(=O)NCCc3ccc(N4CCNCC4)cc3)sc2n1 [Compound I-47] | < 200 | < 200 |
| CCc1ccc2c(N)c(C(=O)NCCc3cc(F)c(N4CCNCC4)cc3F)sc2n1 [Compound I-48] | < 200 | < 200 |
| Cc1ccc2c(N)c(C(=O)NCCc3cc(F)c(N4C[C@@H]5C[C@H]4CN5)cc3F)sc2n1 [Compound I-52] | < 200 | 200 to 2000 |
| Cc1ccc2c(N)c(C(=O)NCCc3cc(F)c(N4C[C@H]5C[C@@H]4CN5)cc3F)sc2n1 [Compound I-53] | < 200 | < 200 |
| Cc1ccc2c(N)c(C(=O)NCCc3ccc(N4CC5CCC(C4)N5)c(C#N)c3)sc2n1 [Compound I-54] | < 200 | 200 to 2000 |
| Cc1cc(Cl)nc2sc(C(=O)NCCc3ccc(N4CCNCC4)cc3)c(N)c12 [Compound I-56] | 200 to 2000 | 200 to 2000 |
| CN1CCC(c2ccc(CCNC(=O)c3sc4nc(Cl)ccc4c3N)cc2)CC1 [Compound I-58] | < 200 | 200 to 2000 |
| CN1CCN(c2ccc(CCNC(=O)c3sc4nc(Cl)ccc4c3N)cc2)CC1 [Compound I-59] | 200 to 2000 | 200 to 2000 |
| Nc1c(C(=O)NCCc2ccc(C3CCNCC3)cc2)sc2nc(Cl)ccc12 [Compound I-60] | 200 to 2000 | 200 to 2000 |
| Cc1cc2c(N)c(C(=O)NCCc3ccc(N4CCNCC4)cc3)sc2nc1C [Compound I-61] | 200 to 2000 | 2000 to 10000 |
| Cc1cc(C(F)F)nc2sc(C(=O)NCCc3ccc(N4CCNCC4)cc3)c(N)c12 [Compound I-62] | < 200 | < 200 |

| Compound | IC50 [1] [nM] | IC50 [2] [nM] |
| --- | --- | --- |
| Cc1nc2sc(C(=O)NCCc3ccc(N4CCNCC4)cc3)c(N)c2cc1F [Compound I-63] | < 200 | 200 to 2000 |
| Cc1ccc2c(N)c(C(=O)NCCc3ccc(N4C5CNCC4C5)cc3)sc2n1 [Compound I-64] | < 200 | < 200 |
| Cc1ccc2c(N)c(C(=O)NCCc3ccc(N4CC5CC(C4)N5)cc3)sc2n1 [Compound I-65] | < 200 | < 200 |
| COc1nc2sc(C(=O)NCCc3cc(F)c(N4CCNCC4)cc3F)c(N)c2cc1F [Compound I-68] | 200 to 2000 | 2000 to 10000 |
| Nc1c(C(=O)NCCc2cc(F)c(N3CC4CCC(C3)N4)cc2F)sc2ncc(F)cc12 [Compound I-69] | < 200 | 200 to 2000 |
| Cc1ccc2c(N)c(C(=O)NCCc3cc(F)c(NC4CNC4)cc3F)sc2n1 [Compound I-70] | < 200 | 200 to 2000 |
| Cc1nc2sc(C(=O)NCCc3ccc(N4CC5CCC(C4)N5)c(C#N)c3)c(N)c2cc1F [Compound I-71] | 200 to 2000 | 200 to 2000 |
| Cc1nc2sc(C(=O)NCCc3cc(F)c(N4CC5CCC(C4)N5)cc3F)c(N)c2cc1F [Compound I-72] | < 200 | 200 to 2000 |
| Cc1ccc2c(N)c(C(=O)NCCc3ccc(C4CCNCC4)cc3F)sc2n1 [Compound I-170] | < 200 | 200 to 2000 |
| Cc1ccc2c(N)c(C(=O)NCCc3ccc(N4CC[C@@H](NC(C)C)C4)cc3)sc2n1 [Compound I-201] | 200 to 2000 | 200 to 2000 |
| Cc1cc(C(F)(F)F)c2c(N)c(C(=O)NCCc3ccc(N4CCNCC4)cc3)sc2n1 [Compound I-204] | 200 to 2000 | < 200 |
| Cc1ccc2c(N)c(C(=O)NCCc3ccc(C4CCNCC4)c(Cl)c3)sc2n1 [Compound I-205] | < 200 | 200 to 2000 |
| CCc1nc2sc(C(=O)NCCc3ccc(N4CCNCC4)cc3)c(N)c2cc1F [Compound I-206] | < 200 | < 200 |
| Cc1ccc2c(N)c(C(=O)NCCc3cc(F)c(N4CCN[C@@H](C)C4)cc3F)sc2n1 [Compound I-210] | 200 to 2000 | 2000 to 10000 |
| Cc1ccc2c(N)c(C(=O)NCCc3ccc(N4CCNCC4)cc3)sc2n1 [Example I-1, 3-Amino-6-methyl-N-(4-(piperazin-1-yl)phenethyl)thieno[2,3-b]pyridine-2-carboxamide] | 200 to 2000 | 200 to 2000 |
| Cc1ccc2c(N)c(C(=O)NCCc3ccc(N4CCNCC4)c(F)c3)sc2n1 [Example I-10, 3-Amino-N-(3-fluoro-4-(piperazin-1-yl)phenethyl)-6-methylthieno[2,3-b]pyridine-2-carboxamide] | 2000 to 10000 | 200 to 2000 |
| Cc1ccc2c(N)c(C(=O)NCCc3cc(F)c(N4CCNCC4)cc3F)sc2n1 [Example I-11, 3-Amino-N-(2,5-difluoro-4-(piperazin-1-yl)phenethyl)-6-methylthieno[2,3-b]pyridine-2-carboxamide] | 200 to 2000 | 200 to 2000 |
| Cc1ccc2c(N)c(C(=O)NCCc3ccc(N4CCNCC4)c(OC(F)F)c3)sc2n1 [Example I-73, 3-Amino-N-(3-(difluoromethoxy)-4-(piperazin-1-yl)phenethyl)-6-methylthieno[2,3-b]pyridine-2-carboxamide] | 200 to 2000 | 200 to 2000 |
| Cc1ccc2c(N)c(C(=O)NCCc3ccc(N4CCN(C5CCC5)CC4)cc3)sc2n1 [Example I-75] | 200 to 2000 | 200 to 2000 |
| Cc1ccc2c(N)c(C(=O)NCCc3ccc(N4CCNCC4)cc3Cl)sc2n1 [Example I-76] | < 200 | 200 to 2000 |
| Cc1ccc2c(N)c(C(=O)NCCc3ccc(N4CCNCC4)c(Cl)c3)sc2n1 [Example I-77] | 200 to 2000 | 200 to 2000 |
